The ED50 is the dose at which the effect has come halfway, by size or by number of responders.

Structures are written as SMILES. Structures can show the parent of a compound that is named as a salt. Where two headings read alike, the source gives them in different places.

Assay [1] concerns Rats Washed Platelet. The experiment in a line: in vitro rat washed platelet aggregation test (collagen-induced). The format is cell-based, rat (Sprague-Dowley). The note with it: 0.05 h, inducer collagen 4 μg/ml, 37° C., 3 minutes after inducer, read-out: 50% Inhibitory Concentration (IC50), Inhibition of Aggregation for Rats Washed Platelet. On the procedure: From the abdominal artery of a male rat (Sprague-Dowley, 8 weeks old) was collected 10 ml of blood with a syringe containing 1.5 ml of ACD (85 mM of sodium citrate, 70 mM of citric acid, 110 mM of glucose) and 20 μg of prostaglandin E1. The blood is placed in a plastic test tube, shaken moderately turning and centrifuged for 10 minutes at 160×g to give platelet rich plasma (PRP). To the prepared PRP was added apyrase (25 μg/ml) and the mixture was layered on 40% bovine serum albumin. The resulting mixture is centrifuged at 1200×g for 25 minutes.
The platelet aggregation reaction was measured by an aggregometer (NKK HEMA TRACER 1 MODEL PAT-6A.6M, Niko bioscience). In a measuring cuvette was placed 245 μl of the washed platelet of which platelet number was adjusted to 5×10^5 /μl and set in the aggregometer. The washed platelet was stirred (1000 rpm) at 37° C. and 3.8 µl of 0.1M of CaCl2 was added thereto. One minute later, 0.5 µl of a solution of a test compound in dimethylsulfoxide was added and 2 minutes later, 1 µl of collagen (Collagen reagent Horm®, HORMON-CHEMIE Munchen GMBH, final concentrate 4 μg/ml) as an inducer for platelet aggregating was added. The platelet aggregation was monitored with an aggregometer in terms of the increase and decrease in transmittancy.

The test system of assay [2] is Guinea Pig Platelet. The experiment in a line: Long Acting Inhibitory effect for Guinea Pig Platelet Aggregation (ex vivo), arachidonic acid-induced. Format: in vivo, guinea pig (Slc- Hartley). The note with it: for AA (100 μM)-Induced Platelet Aggregation (%): 0.5 mg/kg, mean ± S.E., 5 guinea pigs. On the procedure:
A solution of test compound in physiological saline was administered (dosage: 0.5 mg/kg, dosage volume: 2 ml/Kg) to a guinea pig (Slc- Hartley, male, 9 weeks old, weight 520 to 590 g).
Inhibitory effect for platelet aggregation was measured in 1, 3, and 6 hours after administration of the test compounds.
Under sodium pentobarbital anesthesia, blood was collected from the abdominal artery in such the ratio that 3.8% sodium citrate solution/blood was 1 volume/9 volume.
The blood centrifuged for 15 minutes at 180×g at 22° C. to give platelet rich plasma (PRP). The remaining blood was further centrifuged at 3,000 rpm for 10 minutes at 22° C. to give platelet-poor plasma (PPP).
The platelet aggregation test was performed according to Born's method [Born, G.V.R., Nature, 194, 927-929 (1962)], using an aggregometer (model AUTO RAM-61, Rika Denki Kogyo CO., Ltd.). 400 µl of PRP, whose platelets number was prepared to count 50-55×10^4 /μl, was placed in a measuring cuvette and set in the aggregometer. PRP was stirred for 1 minute (at 1,200 rpm) at 37° C. and preliminarily warmed. As an inducer for platelet aggregating, 100 µl of arachidonic acid (sodium salt, Sigma) was added and the platelet aggregation was monitored with an aggregometer in terms of the increase and decrease in light transmission.
Setting the light transmittance for PRP at 0% of platelet aggregating rate, and that for PPP at 100%, the maximum light transmittance for the sample, after the addition of the inducer for platelet aggregating, was regarded as the maximum platelet aggragation rate.
The inhibitory rate for aggregation (%) was calculated from the ratio of the maximum aggregation rate in the test-compound-added group to that in the control group (carrier-added group).

For assay [3], the system named is sodium arachidonate-induced pulmonary thromboembolic death in mice. Put plainly: Protective effects on sodium arachidonate-induced pulmonary thromboembolic death in mice. Particulars: for ED50: Mus musculus, iv, 1 h, into tail vein, mortality at 1 hour, read-out: ED50 (95% confidence limit). The format is in vivo, mice (DDY). How it is done:
The mice (DDY, 4 weeks old, male, weight 20 to 25 g) in a group of ten are used.
Pulmonary thromboembolic death was induced by injecting 99% solution of sodium arachidonate (Sigma) in physiological saline [100 mg/kg (100% pulmonary thromboembolic death was induced in this amount.)] into tail vein. In order to examine the duration time of the test compound, sodium arachidonate was administrated in 15 minutes and 60 minutes after an administration of a solution of the test compounds in physioligical saline into tail vein. The mortality at 1 hour was determined and ED50 was calculated by probit method.

Regarding `O=S(=O)(N[C@@H]1[C@@H](C/C=C\CCCc2nnn[nH]2)[C@H]2CC[C@@H]1O2)c1ccccc1` (relative stereo) [Iba-b, (1R*,2R*,3R*,4S*)-3-phenylsulfonylamino-2-[(2Z)-6-(5-tetrazolyl)hex-2-enyl]-7-oxabicyclo[2.2.1]heptane], the IC50 in assay [1] was 20 nM.

As to `O=S(=O)(N[C@H]1[C@H]2CC[C@H](C2)[C@@H]1C/C=C\CCCc1nnn[nH]1)c1ccccc1` [(+)-Iaa-b, (1R,2S,3S,4S)-3-phenylsulfonylamino-2-[(2Z)-6-(5-tetrazolyl)hex-2-enyl]bicyclo[2.2.1]heptane], the IC50 in assay [1] stood at 2 nM. The same measure, in the same setting: in the case of `CC1(C)[C@H]2C[C@H](C/C=C\CCCc3nnn[nH]3)[C@@H](NS(=O)(=O)c3ccccc3Cl)[C@@H]1C2` [Iel-b, (1R,2R,3S,5S)-2-[(2-chlorophenyl)sulfonylamino]-3-[(2Z)-6-(5-tetrazolyl)hex-2-enyl]-6,6-dimethylbicyclo [3.1.1]heptane] it was 20 nM; in that of `CC1(C)[C@H]2C[C@H](C/C=C\CCCc3nnn[nH]3)[C@@H](NS(=O)(=O)c3ccc(-c4ccccc4)cc3)[C@@H]1C2` [Ieh-b, (1R,2R,3S,5S)-2-[(4-biphenylyl)sulfonylamino]-3-[(2Z)-6-(5-tetrazolyl)hex-2-enyl]-6,6-dimethylbicyclo[3.1.1]heptane], 10 nM; in that of `CC1(C)[C@H]2C[C@H](C/C=C\CCCc3nnn[nH]3)[C@@H](NS(=O)(=O)c3ccccc3)[C@@H]1C2` [Iea-b, (1R,2R,3S,5S)-2-phenylsulfonylamino-3-[(2Z)-6-(5-tetrazolyl)hex-2-enyl]-6,6-dimethylbicyclo[3.1.1]heptane], 20 nM. Still for that read-out and setting: with `CC1(C)[C@H]2C[C@H](C/C=C\CCCc3nnn[nH]3)[C@@H](NS(=O)(=O)c3ccc4ccccc4c3)[C@@H]1C2` [Iei-b, (1R,2R,3S,5S)-2-[(2-naphthyl)sulfonylamino]-3-[(2Z)-6-(5-tetrazolyl)hex-2-enyl]-6,6-dimethylbicyclo[3.1.1]-heptane] the figure was 9 nM; with `O=S(=O)(N[C@H]1[C@H]2CC[C@H](C2)[C@@H]1C/C=C\CCCc1nnn[nH]1)c1ccc(O)cc1` (relative stereo) [Iad-b, (1R*,2S*,3S*,4S*)-3-(4-hydroxyphenylsulfonylamino)-2-[(2Z)-6-(5-tetrazolyl)hex-2-enyl]bicyclo[2.2.1]heptane], 2 nM; with `COc1ccc(S(=O)(=O)N[C@@H]2[C@@H](C/C=C\CCCc3nnn[nH]3)C[C@H]3C[C@@H]2C3(C)C)cc1` [Iee-b, (1R,2R,3S,5S)-2-[(4-methoxyphenyl)sulfonylamino]-3-[(2Z)-6-(5-tetrazolyl)hex-2-enyl]-6,6-dimethylbicyclo [3.1.1]heptane], 5 nM. On the same count and under the same terms, in the case of `CC1(C)[C@H]2C[C@H](C/C=C\CCCc3nnn[nH]3)[C@@H](NS(=O)(=O)c3cccc(Cl)c3)[C@@H]1C2` [Iek-b, (1R,2R,3S,5S)-2-[(3-chlorophenyl)sulfonylamino]-3-[(2Z)-6-(5-tetrazolyl)hex-2-enyl]-6,6-dimethyl-bicyclo [3.1.1]heptane] it was 5 nM; in that of `Cc1ccc(S(=O)(=O)N[C@@H]2[C@@H](C/C=C\CCCc3nnn[nH]3)C[C@H]3C[C@@H]2C3(C)C)cc1` [Ieb-b, (1R,2R,3S,5S)-2-(p-tolylsulfonylamino)-3-[(2Z)-6-(5-tetrazolyl)hex-2-enyl]-6,6-dimethylbicyclo[3.1.1]-heptane], 4 nM.

On to `O=S(=O)(N[C@H]1[C@H](C/C=C\CCCc2nnn[nH]2)[C@H]2CC[C@@H]1O2)c1ccccc1` (relative stereo) [Ica-b, (1R*,2S*,3S*,4S*)-3-phenylsulfonylamino-2-[(2Z)-6-(5-tetrazolyl)hex-2-enyl]-7-oxabicyclo[2.2.1]heptane], for which the IC50 in assay [1] came out at 10 nM. In the case of `O=S(=O)(N[C@H]1[C@H]2CC[C@H](C2)[C@@H]1C/C=C\CCCc1nnn[nH]1)c1ccccc1` (relative stereo) [Iaa-b, (1R*,2S*,3S*,4S*)-3-phenylsulfonylamino-2-[(2Z)-6-(5-tetrazolyl)hex-2-enyl]bicyclo[2.2.1]heptane], the “AA (100 μM)-Induced Platelet Aggregation (%)” value in assay [2] (0 hours after p.o. administration) came to 89.7 ± 1.4%; in assay [2] (1 hour after p.o. administration, * p < 0.05), 2.5 ± 2.0%; in assay [2] (3 hours after p.o. administration, * p < 0.05), 19.0 ± 18.0%; in assay [2] (6 hours after p.o. administration), 56.3 ± 20.4%. Also, the “inhibition of arachidonic acid induced platelet aggregation” value in assay [2] (1 and 3 hours after administration) is “significantly inhibited”; in assay [2] (6 hours after administration), “still observed”. The entries for the “duration of action” value in assay [2] (conclusion of ex vivo test) and in assay [3] (conclusion of mouse test) were “long acting” and “long-acting”, respectively. In assay [3] (15 minutes and 60 minutes pretreatment), the “inhibitory potency, 15 vs 60 minutes pretreatment” value is listed as “did not show significantly different inhibitory potency”. The “inhibitory effect of 60 minutes pretreatment” value in assay [3] (60 minutes pretreatment) is listed as “rather stronger inhibitory effect”. Further, the ED50 is 1.8 mg/kg in assay [3] (pretreatment 15 min) and 1.5 mg/kg in assay [3] (pretreatment 60 min). For the same molecule, the IC50 in assay [1] worked out at 3 nM. On to `CC1(C)[C@H]2C[C@H](C/C=C\CCCc3nnn[nH]3)[C@@H](NS(=O)(=O)c3ccc(Br)cc3)[C@@H]1C2` [Iec-b, (1R,2R,3S,5S)-2-[(4-bromophenyl)sulfonylamino]-3-[(2Z)-6-(5-tetrazolyl)hex-2-enyl]-6,6-dimethylbicyclo[3.1.1]heptane], for which the IC50 in assay [1] is 2 nM. Still for that read-out and setting: in the case of `CC1(C)[C@H]2C[C@H](C/C=C\CCCc3nnn[nH]3)[C@@H](NS(=O)(=O)c3ccc(Cl)cc3)[C@@H]1C2` [Iej-b, (1R,2R,3S,5S)-2-[(4-chlorophenyl)sulfonylamino]-3-[(2Z)-6-(5-tetrazolyl)hex-2-enyl]-6,6-dimethylbicyclo [3.1.1]heptane] it was 7 nM; in that of `O=S(=O)(N[C@H]1[C@H]2CC[C@H](C2)[C@@H]1C/C=C\CCCc1nn[nH]n1)c1ccc(Br)cc1` (relative stereo) [Iac-b, (1R*,2S*,3S*,4S*)-3-(4-bromophenylsulfonylamino-2-[(2Z)-6-(5-tetrazolyl)hex-2-enyl]bicyclo[2.2.1]heptane], 2 nM; in that of `Cc1ccc(S(=O)(=O)N[C@H]2[C@H]3CC[C@H](C3)[C@@H]2C/C=C\CCCc2nn[nH]n2)cc1` (relative stereo) [Iab-b, Sodium salt of (1R*,2S*,3S*,4S*)-2-[(2Z)-6-(5-tetrazolyl)hex-2-enyl]-3-(4-tolylsulfonylamino)bicyclo[2.2.1]-hepatane], 2 nM.

Regarding `CC1(C)[C@H]2C[C@H](NS(=O)(=O)c3ccccc3)[C@@H](C/C=C\CCCc3nn[nH]n3)[C@@H]1C2` [Ida-b], in assay [1], the IC50 was 3 nM. The same measure, in the same setting: with `COc1ccc(S(=O)(=O)N[C@H]2[C@H]3CC[C@H](C3)[C@@H]2C/C=C\CCCc2nnn[nH]2)cc1` (relative stereo) [Iae-b, (1R*,2S*,3S*,4S*)-3-(4-methoxyphenylsulfonylamino)-2-[(2Z)-6-(5-tetrazolyl)hex-2-enyl]bicyclo[2.2.1]heptane] the figure was 2 nM.

For the origin of these results see patent US4916231A, “Alkenyltetrazole derivatives” (Shionogi & Co., Ltd., priority 1988, dated 1990).
